Assay results as given in patent US20170001990A1 (Genentech, Inc., priority 2014, published 2017).

What follows are compounds tested against Human recombinant carboxy-terminal his-tagged LDHA (amino acids 2-332) (Homo sapiens, UniProt P00338) (assay: LDHA enzyme inhibition assay (NADH fluorescence)). Conditions: LDHA IC50 (μM), 1 nM LDHA, NADH and pyruvate, stereochemistry of tested sample given.

Structure (SMILES)	IC50
O=C1CC(c2ccsc2)(c2cccc(OCCC3CCC3)n2)NC(=O)C1Sc1ccccc1Cl (single isomer, unassigned) [Example 168, 3-(2-chlorophenyl)sulfanyl-6-[6-(2-cyclobutylethoxy)-2-pyridyl]-6-(3-thienyl) piperidine-2,4-dione]	0.19 µM
CC(C)(O)CCOc1cccc(C2(c3ccsc3)CC(=O)C(Sc3ccccc3Cl)C(=O)N2)n1 (single isomer, unassigned) [Example 170, 3-(2-chlorophenyl)sulfanyl-6-[6-(3-hydroxy-3-methyl-butoxy)-2-pyridyl]-6-(3-thienyl)piperidine-2,4-dione]	0.145 µM
COc1cc(F)cc(Cc2cccc(C3(c4ccsc4)CC(=O)C(Sc4ccccc4Cl)C(=O)N3)n2)c1 (single isomer, unassigned) [Example 171, 3-(2-chlorophenyl)sulfanyl-6-[6-[(3-fluoro-5-methoxy-phenyl)methyl]-2-pyridyl]-6-(3-thienyl) piperidine-2,4-dione]	0.101 µM
O=C1CC(c2ccsc2)(c2cccc(Oc3ccccc3Br)n2)NC(=O)C1Sc1ccccc1Cl (single isomer, unassigned) [Example 172, 6-[6-(2-bromophenoxy)-2-pyridyl]-3-(2-chloro-phenyl)sulfanyl-6-(3-thienyl)piperidine-2,4-dione]	0.056 µM
O=C1CC(c2ccsc2)(c2cccc(Oc3cc(F)cc(CO)c3)n2)NC(=O)C1Sc1ccccc1Cl (single isomer, unassigned) [Example 176, 3-(2-chlorophenyl)sulfanyl-6-[6-[3-fluoro-5-(hydroxymethyl)phenoxy]-2-pyridyl]-6-(3-thienyl) piperidine-2,4-dione]	0.01 µM
O=C1CC(c2ccsc2)(c2cccc(Cc3ccccc3)n2)NC(=O)C1Sc1ccccc1Cl (single isomer, unassigned) [Example 180, 6-(6-benzyl-2-pyridyl)-3-(2-chlorophenyl)sulfanyl-6-(3-thienyl)piperidine-2,4-dione]	0.002 µM
O=C1CC(c2ccsc2)(c2cccc(OC3CCCCC3)n2)NC(=O)C1Sc1ccccc1Cl (single isomer, unassigned) [Example 181, 3-(2-chlorophenyl)sulfanyl-6-[6-(cyclohexoxy)-2-pyridyl]-6-(3-thienyl) piperidine-2,4-dione]	0.006 µM
CC1(COc2cccc(C3(c4ccsc4)CC(=O)C(Sc4ccccc4Cl)C(=O)N3)n2)CC1 (single isomer, unassigned) [Example 182, 3-(2-chlorophenyl)sulfanyl-6-[6-[(1-methylcyclo-propyl)methoxy]-2-pyridyl]-6-(3-thienyl)piperidine-2,4-dione]	0.056 µM
CC(Oc1cccc(C2(c3ccsc3)CC(=O)C(Sc3ccccc3Cl)C(=O)N2)n1)C1CC1 (single isomer, unassigned) [Example 184, 3-(2-chlorophenyl)sulfanyl-6-[6-(1-cyclopropylethoxy)-2-pyridyl]-6-(3-thienyl) piperidine-2,4-dione]	0.002 µM
O=C1CC(c2ccsc2)(c2cccc(OCCC3CCCCC3)n2)NC(=O)C1Sc1ccccc1Cl (single isomer, unassigned) [Example 185, 3-(2-chlorophenyl)sulfanyl-6-[6-(2-cyclohexylethoxy)-2-pyridyl]-6-(3-thienyl) piperidine-2,4-dione]	0.055 µM
O=C1CC(c2ccsc2)(c2cccc(OCC3CCOCC3)n2)NC(=O)C1Sc1ccccc1Cl (single isomer, unassigned) [Example 187, 3-(2-chlorophenyl)sulfanyl-6-[6-(tetrahydropyran-4-ylmethoxy)-2-pyridyl]-6-(3-thienyl)piperidine-2,4-dione]	0.025 µM
O=C1CCC(COc2cccc(C3(c4ccsc4)CC(=O)C(Sc4ccccc4Cl)C(=O)N3)n2)O1 (single isomer, unassigned) [Example 192, 3-(2-chlorophenyl)sulfanyl-6-[6-[(5-oxotetrahydrofuran-2-yl)methoxy]-2-pyridyl]-6-(3-thienyl)piperidine-2,4-dione]	0.232 µM
O=C1CCC(COc2cccc(C3(c4ccsc4)CC(=O)C(Sc4ccccc4Cl)C(=O)N3)n2)O1 (single isomer, unassigned) [Example 193, 3-(2-chlorophenyl)sulfanyl-6-[6-[(5-oxotetrahydrofuran-2-yl)methoxy]-2-pyridyl]-6-(3-thienyl)piperidine-2,4-dione]	0.059 µM
O=C1CC(c2ccsc2)(c2cccc(OCC3CCCC3)n2)NC(=O)C1Sc1ccccc1Cl (single isomer, unassigned) [Example 194, 3-(2-chlorophenyl)sulfanyl-6-[6-(cyclopentyl-methoxy)-2-pyridyl]-6-(3-thienyl)piperidine-2,4-dione]	0.005 µM
O=C1CC(c2ccsc2)(c2cccc(OCC3CCCO3)n2)NC(=O)C1Sc1ccccc1Cl (single isomer, unassigned) [Example 195, 3-(2-chlorophenyl)sulfanyl-6-[6-(tetrahydrofuran-2-ylmethoxy)-2-pyridyl]-6-(3-thienyl)piperidine-2,4-dione]	0.143 µM
O=C1CC(c2ccsc2)(c2cccc(OCC3CC(F)(F)C3)n2)NC(=O)C1Sc1ccccc1Cl (single isomer, unassigned) [Example 196, 3-(2-chlorophenyl)sulfanyl-6-[6-[(3,3-difluorocyclo-butyl)methoxy]-2-pyridyl]-6-(3-thienyl)piperidine-2,4-dione]	0.036 µM
O=C1CC(c2ccsc2)(c2cccc(Oc3ccccc3Br)n2)NC(=O)C1Sc1ccccc1Cl (single isomer, unassigned) [Example 197, 6-[6-(2-bromophenoxy)-2-pyridyl]-3-(2-chlorophenyl) sulfanyl-6-(3-thienyl) piperidine-2,4-dione]	0.01 µM
O=C1CC(c2ccsc2)(c2cccc(Sc3ccc(F)cc3)n2)NC(=O)C1Sc1ccccc1Cl (single isomer, unassigned) [Example 198, 3-(2-chlorophenyl)sulfanyl-6-[6-(4-fluorophenyl)sulfanyl-2-pyridyl]-6-(3-thienyl)piperidine-2,4-dione]	0.177 µM
O=C1CC(c2ccsc2)(c2cccc(OCC3COC3)n2)NC(=O)C1Sc1ccccc1Cl (single isomer, unassigned) [Example 199, 3-(2-chlorophenyl)sulfanyl-6-[6-(oxetan-3-ylmethoxy)-2-pyridyl]-6-(3-thienyl) piperidine-2,4-dione]	0.012 µM
CCOCCOc1cccc(C2(c3ccsc3)CC(=O)C(Sc3ccccc3Cl)C(=O)N2)n1 (single isomer, unassigned) [Example 200, 3-(2-chlorophenyl)sulfanyl-6-[6-(2-ethoxyethoxy)-2-pyridyl]-6-(3-thienyl) piperidine-2,4-dione]	0.229 µM

Further lines, results first:

IC50	Structure (SMILES)
0.037 µM	COCCCOc1cccc(C2(c3ccsc3)CC(=O)C(Sc3ccccc3Cl)C(=O)N2)n1 (single isomer, unassigned) [Example 201, 3-(2-chlorophenyl)sulfanyl-6-[6-(3-methoxypropoxy)-2-pyridyl]-6-(3-thienyl) piperidine-2,4-dione]
0.018 µM	O=C1CC(c2ccsc2)(c2cccc(Oc3cncc(F)c3)n2)NC(=O)C1Sc1ccccc1Cl (single isomer, unassigned) [Example 202, 3-(2-chlorophenyl)sulfanyl-6-[6-[(5-fluoro-3-pyridyl)oxy]-2-pyridyl]-6-(3-thienyl) piperidine-2,4-dione]
0.007 µM	O=C1CC(c2ccsc2)(c2cccc(Cc3ccccc3)n2)NC(=O)C1Sc1ccccc1Cl (single isomer, unassigned) [Example 204, 6-(6-benzyl-2-pyridyl)-3-(2-chlorophenyl)sulfanyl-6-(3-thienyl)piperidine-2,4-dione]
0.058 µM	O=C1CC(c2ccsc2)(c2cccc(OC3CCCCC3)n2)NC(=O)C1Sc1ccccc1Cl (single isomer, unassigned) [Example 205, 3-(2-chlorophenyl)sulfanyl-6-[6-(cyclohexoxy)-2-pyridyl]-6-(3-thienyl) piperidine-2,4-dione]
0.027 µM	CC1(COc2cccc(C3(c4ccsc4)CC(=O)C(Sc4ccccc4Cl)C(=O)N3)n2)CC1 (single isomer, unassigned) [Example 206, 3-(2-chlorophenyl)sulfanyl-6-[6-[(1-methylcyclopropyl)methoxy]-2-pyridyl]-6-(3-thienyl)piperidine-2,4-dione]
0.02 µM	CC(Oc1cccc(C2(c3ccsc3)CC(=O)C(Sc3ccccc3Cl)C(=O)N2)n1)C1CC1 (single isomer, unassigned) [Example 207, 3-(2-chlorophenyl)sulfanyl-6-[6-(1-cyclopropylethoxy)-2-pyridyl]-6-(3-thienyl) piperidine-2,4-dione]
0.149 µM	O=C1CC(c2ccsc2)(c2cccc(OCCC3CCCCC3)n2)NC(=O)C1Sc1ccccc1Cl (single isomer, unassigned) [Example 208, 3-(2-chlorophenyl)sulfanyl-6-[6-(2-cyclohexylethoxy)-2-pyridyl]-6-(3-thienyl) piperidine-2,4-dione]
0.006 µM	O=C1CC(c2ccsc2)(c2cccc(OCC3CCOCC3)n2)NC(=O)C1Sc1ccccc1Cl (single isomer, unassigned) [Example 209, 3-(2-chlorophenyl)sulfanyl-6-[6-(tetrahydropyran-4-ylmethoxy)-2-pyridyl]-6-(3-thienyl)piperidine-2,4-dione]
0.03 µM	O=C1CCC(COc2cccc(C3(c4ccsc4)CC(=O)C(Sc4ccccc4Cl)C(=O)N3)n2)O1 (single isomer, unassigned) [Example 212, 3-(2-chlorophenyl)sulfanyl-6-[6-[(5-oxotetrahydrofuran-2-yl)methoxy]-2-pyridyl]-6-(3-thienyl)piperidine-2,4-dione]
0.034 µM	O=C1CC(c2ccsc2)(c2cccc(Sc3ccc(F)cc3)n2)NC(=O)C1Sc1ccccc1Cl (single isomer, unassigned) [Example 213, 3-(2-chlorophenyl)sulfanyl-6-[6-(4-fluorophenyl)sulfanyl-2-pyridyl]-6-(3-thienyl)piperidine-2,4-dione]
